Measurements reported in ChEMBL document CHEMBL2429866, “New aminoadamantane derivatives with antiproliferative activity” (Med Chem Res, 2013).

How the values were obtained:
[1] = tested on: NCI-H460; experiment: Cytotoxicity against human NCI-H460 cells after 48 hrs by SRB assay; format: functional; settings: NCI-H460, 48 h
[2] = tested on: U-251; experiment: Cytotoxicity against human U251 cells after 48 hrs by SRB assay; format: functional; settings: U-251, 48 h
[3] = tested on: SF-268; experiment: Cytotoxicity against human SF268 cells after 48 hrs by SRB assay; format: functional; settings: SF-268, 48 h
[4] = tested on: MCF7; experiment: Cytotoxicity against human MCF7 cells after 48 hrs by SRB assay; format: functional; settings: MCF7, 48 h
[5] = tested on: DU-145; experiment: Cytotoxicity against human DU145 cells after 48 hrs by SRB assay; format: functional; settings: DU-145, 48 h
[6] = tested on: PC-3; experiment: Cytotoxicity against human PC3 cells after 48 hrs by SRB assay; format: functional; settings: PC-3, 48 h
[7] = tested on: COLO 205; experiment: Cytotoxicity against human COLO205 cells after 48 hrs by SRB assay; format: functional; settings: COLO 205, 48 h
[8] = Cytotoxicity against human MSC cells after 48 hrs by SRB assay; format: cell-based; settings: for GI50 at 48 h: MSC cells; for TGI: msc, 48 h
[9] = tested on: A549; experiment: Cytotoxicity against human A549 cells after 48 hrs by SRB assay; format: functional; settings: A549, 48 h
[10] = Cytotoxicity against human EKVX cells after 48 hrs by SRB assay; format: functional
[11] = Cytotoxicity against human NCI-ADR-RES cells after 48 hrs by SRB assay; format: functional
[12] = tested on: OVCAR-5; experiment: Cytotoxicity against human OVCAR5 cells after 48 hrs by SRB assay; format: functional; settings: OVCAR-5, 48 h
[13] = tested on: IGROV-1; experiment: Cytotoxicity against human IGROV1 cells after 48 hrs by SRB assay; format: functional; settings: IGROV-1, 48 h
[14] = tested on: MDA-MB-231; experiment: Cytotoxicity against human MDA-MB-231 cells after 48 hrs by SRB assay; format: functional; settings: MDA-MB-231, 48 h
[15] = Cytotoxicity against human CAKI cells after 48 hrs by SRB assay; format: functional
[16] = tested on: HCT-116; experiment: Cytotoxicity against human HCT116 cells after 48 hrs by SRB assay; format: functional; settings: HCT-116, 48 h
[17] = (§1) Cytotoxicity against human NHDF cells after 48 hrs by SRB assay; format: cell-based; settings: NHDF cells
[18] = tested on: NHDF; experiment: as §1; format: cell-based; settings: nhdf, 48 h
[19] = tested on: SK-MEL-28; experiment: Cytotoxicity against human SK-MEL-28 cells after 48 hrs by SRB assay; format: functional; settings: SK-MEL-28, 48 h
[20] = tested on: DMS-114; experiment: Cytotoxicity against human DMS114 cells after 48 hrs by SRB assay; format: functional; settings: DMS-114, 48 h
[21] = tested on: HCT-15; experiment: Cytotoxicity against human HCT15 cells after 48 hrs by SRB assay; format: functional; settings: HCT-15, 48 h
[22] = tested on: LNCaP; experiment: Cytotoxicity against human LNCAP cells after 48 hrs by SRB assay; format: functional

Work on NC1C2CC3CC(C2)CC1(c1ccccc1)C3 (stereo not drawn) yielded a GI50 [1] of 100 µM, a TGI [1] of 100 µM and a GI50 [2] of 100 µM. For the same compound, the TGI [2] was 100 µM, the GI50 [3] was 100 µM and the TGI [3] was 100 µM. For the same compound, the GI50 [4] was 69.3 µM, the TGI [4] was 100 µM and the GI50 [5] was 100 µM. It also gave a TGI [5] of 100 µM, a GI50 [6] of 82.9 µM and a TGI [6] of 89.3 µM. It also gave a GI50 [7] of 84.5 µM and a TGI [7] of 100 µM.

Work on Cl.NC1C2CC3CC(C2)CC1(Cc1ccccc1)C3 (stereo not drawn) yielded a GI50 at 48 h [8] of 9.55 µM, a TGI [8] of 45.56 µM and a GI50 [9] of 8.67 µM. It also gave a TGI [9] of 43.7 µM, a GI50 [10] of 6.94 µM and a TGI [10] of 29.2 µM. For the same compound, the GI50 [3] was 21 µM, the TGI [3] was 56.8 µM and the GI50 [11] was 6.7 µM. For the same compound, the TGI [11] was 30 µM, the GI50 [12] was 8.35 µM and the TGI [12] was 37.8 µM. For the same compound, the GI50 [13] was 7.6 µM, the TGI [13] was 36.5 µM and the GI50 [14] was 6.68 µM. The TGI [14] was 46.6 µM, the GI50 [4] was 5.5 µM and the TGI [4] was 9.5 µM. The GI50 [5] was 6.68 µM, the TGI [5] was 29.8 µM and the GI50 [15] was 6.54 µM. For the same compound, the TGI [15] was 26.8 µM, the GI50 [7] was 7.12 µM and the TGI [7] was 33.2 µM. For the same compound, the GI50 [16] was 6.59 µM and the TGI [16] was 35.8 µM.

For Cl.NC1C2CC3CC(C2)CC1(Cc1ccc(F)cc1)C3 (stereo not drawn), the GI50 at 48 h [17] was 17.9 µM, the TGI [18] was 52.8 µM and the GI50 [19] was 13.2 µM. The TGI [19] was 45 µM, the GI50 [20] was 9.38 µM and the TGI [20] was 50.4 µM. For the same compound, the GI50 [1] was 13.7 µM, the TGI [1] was 52 µM and the GI50 [2] was 21.8 µM. The TGI [2] was 50.9 µM, the GI50 [3] was 7.83 µM and the TGI [3] was 37.4 µM. For the same compound, the GI50 [11] was 7.4 µM, the TGI [11] was 24.4 µM and the GI50 [4] was 4.6 µM. It also gave a TGI [4] of 8.7 µM, a GI50 [21] of 19.4 µM and a TGI [21] of 53.8 µM. For the same compound, the GI50 [16] was 5.6 µM and the TGI [16] was 17.5 µM.

COc1ccc(CC23CC4CC(CC(C4)C2N)C3)cc1.Cl (stereo not drawn) showed a GI50 at 48 h [17] of 27.7 µM, a TGI [18] of 58.8 µM and a GI50 at 48 h [8] of 24.8 µM. For the same compound, the TGI [8] was 56.05 µM, the GI50 [19] was 31.8 µM and the TGI [19] was 60.7 µM. The GI50 [20] was 40.1 µM, the TGI [20] was 73.9 µM and the GI50 [1] was 31.2 µM. For the same compound, the TGI [1] was 62.4 µM, the GI50 [2] was 31.2 µM and the TGI [2] was 58 µM. It also gave a GI50 [3] of 21.2 µM, a TGI [3] of 50.7 µM and a GI50 [11] of 29.3 µM. For the same compound, the TGI [11] was 55.3 µM, the GI50 [4] was 7.4 µM and the TGI [4] was 42.3 µM. The GI50 [21] was 38.8 µM, the TGI [21] was 75 µM and the GI50 [16] was 18.5 µM. For the same compound, the TGI [16] was 52.2 µM.

For c1ccc2c(c1)CNC1C3CC4CC(C3)CC21C4 (stereo not drawn), the GI50 [1] was 100 µM, the TGI [1] was 100 µM and the GI50 [3] was 100 µM. It also gave a TGI [3] of 100 µM, a GI50 [4] of 52 µM and a TGI [4] of 100 µM. For the same compound, the GI50 [16] was 63.9 µM and the TGI [16] was 100 µM.

CN(C)CCNC1C2CC3CC(C2)CC1(Cc1ccccc1)C3 (stereo not drawn) gave a GI50 [20] of 26.5 µM, a TGI [20] of 58.1 µM and a GI50 [3] of 29.3 µM. The TGI [3] was 57.1 µM, the GI50 [4] was 25.9 µM and the TGI [4] was 54.1 µM. The GI50 [22] was 24.4 µM, the TGI [22] was 54.7 µM and the GI50 [7] was 25.4 µM. It also gave a TGI [7] of 59.9 µM, a GI50 [16] of 24 µM and a TGI [16] of 55.9 µM.

Work on c1ccc(CC23CC4CC(CC(C4)C2NCCN2CCCCC2)C3)cc1 (stereo not drawn) yielded a GI50 [1] of 6.32 µM, a TGI [1] of 32.2 µM and a GI50 [3] of 13.1 µM. It also gave a TGI [3] of 45.9 µM, a GI50 [4] of 6.75 µM and a TGI [4] of 33.2 µM. It also gave a GI50 [16] of 9.94 µM and a TGI [16] of 51.7 µM.

Work on c1ccc(CC23CC4CC(CC(C4)C2NCCN2CCNCC2)C3)cc1 (stereo not drawn) yielded a GI50 [1] of 7.49 µM, a TGI [1] of 46.8 µM and a GI50 [3] of 22.2 µM. For the same compound, the TGI [3] was 53.6 µM, the GI50 [4] was 21.1 µM and the TGI [4] was 52.7 µM. The GI50 [16] was 7.02 µM and the TGI [16] was 50 µM.

Compound CN(C)CCCNC1C2CC3CC(C2)CC1(Cc1ccccc1)C3 (stereo not drawn) has a GI50 [1] of 5.78 µM, a TGI [1] of 25.8 µM and a GI50 [3] of 9.09 µM. It also gave a TGI [3] of 40.9 µM, a GI50 [4] of 9.11 µM and a TGI [4] of 42.9 µM. It also gave a GI50 [16] of 6.76 µM and a TGI [16] of 34.8 µM.

For c1ccc(CC23CC4CC(CC(C4)C2NCCCN2CCOCC2)C3)cc1 (stereo not drawn), the GI50 [1] was 50.7 µM, the TGI [1] was 100 µM and the GI50 [3] was 56.4 µM. The TGI [3] was 100 µM, the GI50 [4] was 28.9 µM and the TGI [4] was 58.5 µM. For the same compound, the GI50 [16] was 44 µM and the TGI [16] was 100 µM.

With c1ccc(CC23CC4CC(CC(C4)C2NCCCn2ccnc2)C3)cc1 (stereo not drawn) the GI50 [1] was 31.5 µM, the TGI [1] was 67.5 µM and the GI50 [3] was 28.8 µM. For the same compound, the TGI [3] was 62.8 µM, the GI50 [4] was 27 µM and the TGI [4] was 56.1 µM. For the same compound, the GI50 [16] was 26.8 µM and the TGI [16] was 64.7 µM.

Compound N[C@H]1c2ccccc2C23CC4CC(CC(C4)[C@H]12)C3 (relative stereo) has a GI50 [2] of 31.2 µM, a TGI [2] of 56.2 µM and a GI50 [4] of 32.6 µM. For the same compound, the TGI [4] was 62.5 µM, the GI50 [22] was 28.5 µM and the TGI [22] was 61.2 µM. For the same compound, the GI50 [5] was 26.6 µM, the TGI [5] was 37.6 µM and the GI50 [7] was 35 µM. The TGI [7] was 69.9 µM.

Compound N[C@@H]1c2ccccc2C23CC4CC(CC(C4)[C@H]12)C3 (relative stereo) has a GI50 [2] of 33 µM, a TGI [2] of 56.6 µM and a GI50 [5] of 31.4 µM. It also gave a TGI [5] of 66.1 µM, a GI50 [6] of 21.3 µM and a TGI [6] of 56.7 µM.

Work on COc1cc([C@@H]2c3cc4c(cc3[C@@H](O[C@@H]3O[C@@H]5CO[C@@H](C)O[C@H]5[C@H](O)[C@H]3O)[C@H]3COC(=O)[C@H]23)OCO4)cc(OC)c1O [ETOPOSIDE] yielded a GI50 [3] of 4.21 µM and a TGI [3] of 92.7 µM.

O=c1[nH]cc(F)c(=O)[nH]1 [FLUOROURACIL] gave a GI50 [1] of 5.95 µM, a TGI [1] of over 100 µM and a GI50 [3] of 49.2 µM. The TGI [3] was over 100 µM, the GI50 [4] was 8.4 µM and the TGI [4] was over 100 µM. The GI50 [16] was 9.51 µM and the TGI [16] was over 100 µM.
